# Test results taken from article PMC11904221 (EMBO Molecular Medicine, 2025).
# Like-named read-outs stand apart in the source and are kept apart here. Where a SMILES comes first, the peptide text is derived from it.
# Assays:
# [1] = in vivo; settings: BALB/c, mouse, ip
# Description: Pharmacological profile of APLN-DM peptide
# Maximal Tolerated Dose (MTD) study of APLN -DM in mice
# Six groups comprising six Balb/C mice per group (3 males and 3 females) were assigned to the study. In each gender, one control group (1 Male (M)/1 female (F)) received the reference solution (vehicle) and 5 […]
# mg/kg (4M/4F), 2000 mg/kg (5M/5F) and 1500 mg/kg (6M/6F). APLN-DM peptide was administrated via intra-peritoneal (IP) single injection at day 1 followed by observation during 14 days. During the study, mortality, morbidity, general clinical signs and bod y weight were recorded. In the end of the study pathology and organ necropsy examination were performed. Thereby, APLN-DM peptide and vehicle were administered to mice according to Table-1 and their effects were analyzed according to Table-2.
# Each test item dose was administrated to 3 female and 3 male mice. The administration was performed IP at a dose volume of 10 ml/kg. Dosing was performed according to Figure-1 and each increase in dose pending on the outcome of the previous dose (results of clinical signs). The lag time between the increasing doses was approximately 48h.
# No. (n=) Mouse# Treatment Dose Level administration administratio […]
# Table-1. Study design -1. […], […]
# Study Day* Procedure Body Weight Clinical Mortality & Organ
# Sign Morbidity observation
# 2-14 - Twice weekly Once -
# 15 Termination √ √ Gross pathology
# Figure 1 - Decisional tree for successive dosing for MTD determination […]
# At study termination, body weight (Figure 2 and Figure 3) and gross pathology abnormalities were analyzed in all animals. Main pathological finding were blood clots in intestine and chest cavity. Treatment-related clinical adverse side effects (purple tail, lethargy, decreased motor activity) were observed also in groups treated either with 200, 500, 1000 and 1500 mg/kg. The tail recovered a normal color after 1 hour in all dose groups. […]
# abnormalities were detected in all male and female animals from these groups at the scheduled termination […]
# [2] = Time-dependent stability in water and in plasma on storage, LC-MS; assay type: physicochemical; settings: read-out: % of area at T=0
# Description: The standard deviations were below the acceptable values (<15%) showing that the accuracy is correct and compliant with standard quantification protocols. […]
# the linearity of the method. […]
# for concentrations below 0.5 µM.
# The second step of the study consisted to analyse the stability of the peptide in order to evaluate the feasibility of the quantification of APLN-DM in the samples obtained in vivo.
# Quantification in the plasma after protein precipitation
# Before the injection for LC-MS analysis, the plasmas had to be processed for elimination of major proteins, which can disturb the analysis. Proteins were precipitated by an organic solvent. […]
# The second method was adapted from the protocol described by O. Chertov et al. (Proteomics 2004, 4, 1195- […]
# 1203). […] 7 µl of this solution were […]
# added to 70 µl plasma or 70 µl water (control).
# 10 µl of each sample were mixed to 20 µl water, vortexed, mixed to 45 µl d’acetonitrile + 0.1% trifluoroacetic acid, sonicated, vortexed, centrifuged for 15 minutes. The supernatant was evaporated and the pellet was re-suspended in 30 µl water. The 2 samples (peptide in plasma or in water) were injected in LC-MS according to the conditions previously established.
# With this method, the recovery of APLN-DM in the plasma after protein precipitation was sufficient.
# The coefficient of variation was acceptable. This method was used for the stability study in the plasma.
# 7 µl were added to 3 samples […]
# of 70 µl plasma or 70 µl water.
# Six solutions were obtained:
# -W RT : solution in water stored at room temperature
# -W 4°C : solution in water stored at 4°C
# -W -18°C : solution in water stored at -18°C
# -P RT : solution in plasma stored at room temperature
# -P 4°C : solution in plasma stored at 4°C
# -P -18°C : solution in plasma stored at -18°C. […]
# processed for protein extraction (according to the method previously described), and then injected in […]
# LC-MS for APLN-DM quantification. For […]
# each sample, % were calculated according to the area obtained at T=0 which correspo nd to 100%.
# [3] = in vitro
smiles,measurement,setting,value
CSCC[C@H](NC(=O)[C@@H]1CCCN1C(=O)CNC(=O)[C@H](CCCCN)NC(=O)[C@H](Cc1c[nH]cn1)NC(=O)[C@H](CO)NC(=O)[C@H](CC(C)C)NC(=O)[C@H](CCCNC(=N)N)NC(=O)[C@@H]1CCCN1C(=O)[C@H](CCCNC(=N)N)NC(=O)[C@H](CCC(N)=O)NC(=O)[C@H](CO)NC(=O)[C@H](CO)NC(=O)[C@H](Cc1ccccc1)NC(=O)[C@H](CCCCN)NC(=O)[C@H](CO)NC(=O)[C@H](CO)NC(=O)CNC(=O)CNC(=O)[C@H](CCC(N)=O)NC(=O)[C@H](Cc1c[nH]c2ccccc12)NC(=O)[C@@H]1CCCN1C(=O)CNC(=O)[C@@H]1CCCN1C(=O)CNC(=O)[C@H](CC(N)=O)NC(=O)[C@H](CCCNC(=N)N)NC(=O)[C@H](CO)NC(=O)CNC(=O)[C@H](CCCNC(=N)N)NC(=O)[C@@H]1CCCN1C(=O)[C@H](CCC(N)=O)NC(=O)[C@@H](NC(=O)[C@@H](N)CC(C)C)C(C)C)C(=O)N1CCC[C@H]1C(=O)N[C@@H](Cc1ccccc1)C(=O)O [APLN-DM] (H-LVQPRGSRNGPGPWQGGSSKFSSQRPRLSHKGPMPF-OH),MTD at 336 h,[1]; female,1000 mg/kg
same,MTD at 336 h,[1]; male,1500 mg/kg
same,remaining at 2 h,[2]; P 4°C,51%
same,remaining at 168 h,[2]; P 4°C,6%
same,remaining at 1 h,"[2]; P 4°C: in plasma, 4°C",66%
same,remaining at 2 h,[2]; P -18°C,66%
same,remaining at 5 h,[2]; P -18°C,114%
same,remaining at 24 h,[2]; P -18°C,86%
same,remaining at 48 h,[2]; P -18°C,97%
same,remaining at 72 h,[2]; P -18°C,89%
same,remaining at 168 h,[2]; P -18°C,12%
same,remaining at 1 h,"[2]; P -18°C: in plasma, -18°C",75%
same,remaining at 2 h,[2]; P RT,17%
same,remaining at 5 h,[2]; P RT,13%
same,remaining at 24 h,[2]; P RT,8%
same,remaining at 48 h,[2]; P RT,14%
same,remaining at 72 h,[2]; P RT,7%
same,remaining at 168 h,[2]; P RT,22%
same,remaining at 1 h,"[2]; P RT: in plasma, room temperature",21%
same,Half-life in human plasma,[3],> 18 h
same,"Half-life, 1st",[3]; human,21.173 h
same,"Half-life, 2nd",[3]; human,16.21 h
same,half-life at 1 µM,"[3]; human, plasma",18.7 h
same,remaining at 0.5 h,"[3]; human, plasma",99%
same,remaining at 1 h,"[3]; human, plasma",98%
same,remaining at 2 h,"[3]; human, plasma",93%
